The data set in a line: Amorphous content / crystalline disorder by isothermal calorimetry (IC TAM 3). The format is physicochemical. The note with it: ursolic acid, five repeated micronization procedures. On the procedure:
1 kg of each sample of ursolic acid (98% purity, Sigma Aldrich) of an average particle size of […] was micronized five times in devices having different hitting elements. The discs were cooled through a feeder opening with liquid nitrogen spraying to avoid overheating of the heat-sensitive substance.
The micronized samples were analyzed for particle size (Malvern MasterSizer 2000), while the extent of crystalline disorder of particles was quantified with isothermal calorimetry (IC TAM 3, TA instruments, USA). Data was recorded with proprietary software Digitam 4.2.
Background: Isothermal titration calorimetry measures the heat released or taken up as one component is titrated into another.

Structures are written as SMILES.

In the case of `C[C@H]1[C@H](C)CC[C@]2(C(=O)O)CC[C@]3(C)C(=CC[C@@H]4[C@@]5(C)CC[C@H](O)C(C)(C)[C@@H]5CC[C@]43C)[C@H]12` [ursolic acid], the “Amorphous Content” value (MICRONIZATION-1) is given as 3.68 %, w/w; the “Amorphous Content” value (MICRONIZATION-2) is 6.12 %, w/w; the “Amorphous Content” value (MICRONIZATION-3) was 19.23 %, w/w.
